Columns and labels:
Type in all cases: in vivo
corn (Zea mays) [1] = test: Test A1 postemergence, corn; details: Postemergence
Text: (§1) Seeds of plant species selected from, blackgrass (Alopecurus myosuroides), corn (Zea mays), Foxtail, Giant (giant foxtail, Setaria faberi), goosegrass (Eleusine indica), kochia (Bassia scoparia), Oat, Wild (wild oat, Avena fatua), Pigweed, Palmer (palmer amaranth, palmer pigweed, Amaranthus palmeri), ragweed (common ragweed, Ambrosia artemisiifolia), Ryegrass, Italian (Italian ryegrass, Lolium multiflorum), soybean (Glycine max), and wheat (Triticum aestivum) were planted into a blend of loam soil and sand and treated preemergence with a directed soil spray using test chemicals formulated in a non-phytotoxic solvent mixture which included a surfactant. At the same time, plants selected from these crop and weed species and also galium (catchweed bedstraw, Galium aparine) and horseweed (Erigeron canadensis) were planted in pots containing the same blend of loam soil and sand and treated with postemergence applications of test chemicals formulated in the same manner. Plants ranged in height from 2 to 10 cm and were in the one- to two-leaf stage for the postemergence treatment. […] A dash (-) response means no test result.

[2] = tested on: blackgrass (Alopecurus myosuroides); test: Test A1 postemergence, blackgrass; details: Postemergence, 0 to 100 scale (0 no effect, 100 complete control)
Text: as §1

rice (Oryza sativa) = test: Test B1 flooded paddy test, rice; details: 250 g ai/ha, Flood, applied to paddy water, 2-leaf stage, visually evaluated after 10 to 14 days
Text: (§2) A dash (-) response means no test result.

[3] = tested on: Ryegrass, Italian (Italian ryegrass, Lolium multiflorum); test: Test A1 postemergence, Ryegrass, Italian; details: Postemergence
Text: as §1

[4] = tested on: Pigweed, Palmer (palmer amaranth, palmer pigweed, Amaranthus palmeri); test: Test A1 postemergence, Pigweed, Palmer; details: Postemergence
Text: as §1

[5] = tested on: blackgrass (Alopecurus myosuroides); test: Test A1 preemergence, blackgrass
Text: as §1

[6] = tested on: ragweed (common ragweed, Ambrosia artemisiifolia); test: Test A1 preemergence, ragweed
Text: as §1

[7] = tested on: Foxtail, Giant (giant foxtail, Setaria faberi); test: Test A1 postemergence, Foxtail, Giant; details: Postemergence
Text: as §1

[8] = tested on: ragweed (common ragweed, Ambrosia artemisiifolia); test: Test A1 postemergence, ragweed; details: Postemergence
Text: as §1

[9] = tested on: Ryegrass, Italian (Italian ryegrass, Lolium multiflorum); test: Test A1 preemergence, Ryegrass, Italian
Text: as §1

[10] = tested on: Foxtail, Giant (giant foxtail, Setaria faberi); test: Test A1 preemergence, Foxtail, Giant
Text: as §1

soybean (Glycine max) [11] = test: Test A1 postemergence, soybean; details: Postemergence
Text: as §1

[12] = tested on: Oat, Wild (wild oat, Avena fatua); test: Test A1 postemergence, Oat, Wild; details: Postemergence
Text: as §1

[13] = tested on: goosegrass (Eleusine indica); test: Test A1 postemergence, goosegrass; details: Postemergence
Text: as §1

[14] = tested on: goosegrass (Eleusine indica); test: Test A1 preemergence, goosegrass
Text: as §1

[15] = tested on: wheat (Triticum aestivum); test: Test A1 preemergence, wheat
Text: as §1

kochia (Bassia scoparia) [16] = test: Test A1 preemergence, kochia
Text: as §1

[17] = tested on: Pigweed, Palmer (palmer amaranth, palmer pigweed, Amaranthus palmeri); test: Test A1 preemergence, Pigweed, Palmer
Text: as §1

[18] = tested on: ducksalad (Heteranthera limosa); test: Test B1 flooded paddy test, ducksalad; details: 250 g ai/ha, Flood, applied to paddy water, 2-leaf stage, visually evaluated after 10 to 14 days
Text: as §2

kochia (Bassia scoparia) [19] = test: Test A1 postemergence, kochia; details: Postemergence
Text: as §1

[20] = tested on: Oat, Wild (wild oat, Avena fatua); test: Test A1 preemergence, Oat, Wild
Text: as §1

[21] = tested on: galium (catchweed bedstraw, Galium aparine); test: Test A1 postemergence, galium; details: Postemergence
Text: as §1

[22] = tested on: barnyardgrass (Echinochloa crus-galli); test: Test B1 flooded paddy test, barnyardgrass; details: 250 g ai/ha, Flood, applied to paddy water, 2-leaf stage, visually evaluated after 10 to 14 days
Text: as §2

soybean (Glycine max) [23] = test: Test A1 preemergence, soybean
Text: as §1

[24] = tested on: wheat (Triticum aestivum); test: Test A1 postemergence, wheat; details: Postemergence
Text: as §1

corn (Zea mays) [25] = test: Test A1 preemergence, corn
Text: as §1

[26] = 31 g ai/ha, 0 to 100 scale (0 no effect, 100 complete control), 10 days
[27] = 31 g ai/ha, 0 to 100 scale (0 no effect, 100 complete control)
[28] = 125 g ai/ha, 0 to 100 scale, 0 no effect, 100 complete control

CCC1ON=C(c2cc(NS(=O)(=O)C(F)(F)F)c(C)cc2C)C1CC (centres unmarked) [Compound 346]
Plant response rating, Corn (corn (Zea mays) [1]; [26]): 20
Plant response rating, Corn (corn (Zea mays) [1]; 125 g ai/ha, 0 to 100 scale): 60
Plant response rating, Blackgrass ([2]; 31 g ai/ha, 10 days): 0
Plant response rating, Blackgrass ([2]; 125 g ai/ha): 60
Plant response rating, Rice (0 to 100 scale, 0 is no effect, 100 is complete control) (rice (Oryza sativa)): 15
Plant response rating, Ryegrass, Italian [3, 26]: 0
Plant response rating, Ryegrass, Italian ([3]; 125 g ai/ha, 0 to 100 scale): 80
Plant response rating, Pigweed, Palmer [4, 26]: 20
Plant response rating, Pigweed, Palmer ([4]; 125 g ai/ha, 0 to 100 scale): 50
Plant response rating, Blackgrass [5, 27]: 80
Plant response rating, Blackgrass [5, 28]: 90
Plant response rating, Ragweed [6, 27]: 0
Plant response rating, Ragweed [6, 28]: 10
Plant response rating, Foxtail, Giant [7, 26]: 30
Plant response rating, Foxtail, Giant ([7]; 125 g ai/ha, 0 to 100 scale): 50
Plant response rating, Ragweed [8, 26]: 50
Plant response rating, Ragweed ([8]; 125 g ai/ha, 0 to 100 scale): 70
Plant response rating, Ryegrass, Italian [9, 27]: 50
Plant response rating, Ryegrass, Italian [9, 28]: 90
Plant response rating, Foxtail, Giant [10, 27]: 60
Plant response rating, Foxtail, Giant [10, 28]: 100
Plant response rating, Soybean (soybean (Glycine max) [11]; [26]): 30
Plant response rating, Soybean (soybean (Glycine max) [11]; 125 g ai/ha, 0 to 100 scale): 60
Plant response rating, Oat, Wild [12, 26]: 20
Plant response rating, Oat, Wild ([12]; 125 g ai/ha, 0 to 100 scale): 40
Plant response rating, Goosegrass [13, 26]: 40
Plant response rating, Goosegrass ([13]; 125 g ai/ha, 0 to 100 scale): 90
Plant response rating, Goosegrass [14, 27]: 90
Plant response rating, Goosegrass [14, 28]: 100
Plant response rating, Wheat [15, 27]: 20
Plant response rating, Wheat [15, 28]: 70
Plant response rating, Kochia (kochia (Bassia scoparia) [16]; [27]): 30
Plant response rating, Kochia (kochia (Bassia scoparia) [16]; [28]): 30
Plant response rating, Pigweed, Palmer [17, 27]: 100
Plant response rating, Pigweed, Palmer [17, 28]: 100
Plant response rating, Ducksalad (0 to 100 scale, 0 is no effect, 100 is complete control) [18]: 65
Plant response rating, Kochia (kochia (Bassia scoparia) [19]; [26]): 30
Plant response rating, Kochia (kochia (Bassia scoparia) [19]; 125 g ai/ha, 0 to 100 scale): 60
Plant response rating, Oat, Wild [20, 27]: 30
Plant response rating, Oat, Wild [20, 28]: 80
Plant response rating, Galium [21, 26]: 70
Plant response rating, Galium ([21]; 125 g ai/ha, 0 to 100 scale): 100
Plant response rating, Barnyardgrass (0 to 100 scale, 0 is no effect, 100 is complete control) [22]: 90
Plant response rating, Soybean (soybean (Glycine max) [23]; [27]): 50
Plant response rating, Soybean (soybean (Glycine max) [23]; [28]): 50
Plant response rating, Wheat [24, 26]: 30
Plant response rating, Wheat ([24]; 125 g ai/ha, 0 to 100 scale): 70
Plant response rating, Corn (corn (Zea mays) [25]; [27]): 10
Plant response rating, Corn (corn (Zea mays) [25]; [28]): 20

CCC1ON=C(c2cc(N(COC(=O)C(C)(C)C)S(=O)(=O)C(F)(F)F)c(C)cc2C)C1CC (centres unmarked) [Compound 347]
Plant response rating, Corn (corn (Zea mays) [1]; [26]): 0
Plant response rating, Corn (corn (Zea mays) [1]; 125 g ai/ha, 0 to 100 scale): 10
Plant response rating, Blackgrass ([2]; 31 g ai/ha, 10 days): 0
Plant response rating, Blackgrass ([2]; 125 g ai/ha): 30
Plant response rating, Rice (0 to 100 scale, 0 is no effect, 100 is complete control) (rice (Oryza sativa)): 25
Plant response rating, Ryegrass, Italian [3, 26]: 0
Plant response rating, Ryegrass, Italian ([3]; 125 g ai/ha, 0 to 100 scale): 60
Plant response rating, Pigweed, Palmer [4, 26]: 20
Plant response rating, Pigweed, Palmer ([4]; 125 g ai/ha, 0 to 100 scale): 50
Plant response rating, Blackgrass [5, 27]: 10
Plant response rating, Blackgrass [5, 28]: 30
Plant response rating, Ragweed [6, 27]: 0
Plant response rating, Ragweed [6, 28]: 0
Plant response rating, Foxtail, Giant [7, 26]: 20
Plant response rating, Foxtail, Giant ([7]; 125 g ai/ha, 0 to 100 scale): 30
Plant response rating, Ragweed [8, 26]: 40
Plant response rating, Ragweed ([8]; 125 g ai/ha, 0 to 100 scale): 70
Plant response rating, Ryegrass, Italian [9, 27]: 0
Plant response rating, Ryegrass, Italian [9, 28]: 0
Plant response rating, Foxtail, Giant [10, 27]: 0
Plant response rating, Foxtail, Giant [10, 28]: 60
Plant response rating, Soybean (soybean (Glycine max) [11]; [26]): 40
Plant response rating, Soybean (soybean (Glycine max) [11]; 125 g ai/ha, 0 to 100 scale): 50
Plant response rating, Oat, Wild [12, 26]: 10
Plant response rating, Oat, Wild ([12]; 125 g ai/ha, 0 to 100 scale): 20
Plant response rating, Goosegrass [13, 26]: 0
Plant response rating, Goosegrass ([13]; 125 g ai/ha, 0 to 100 scale): 40
Plant response rating, Goosegrass [14, 27]: 10
Plant response rating, Goosegrass [14, 28]: 60
Plant response rating, Wheat [15, 27]: 0
Plant response rating, Wheat [15, 28]: 20
Plant response rating, Kochia (kochia (Bassia scoparia) [16]; [27]): 0
Plant response rating, Kochia (kochia (Bassia scoparia) [16]; [28]): 50
Plant response rating, Pigweed, Palmer [17, 27]: 20
Plant response rating, Pigweed, Palmer [17, 28]: 50
Plant response rating, Ducksalad (0 to 100 scale, 0 is no effect, 100 is complete control) [18]: 55
Plant response rating, Kochia (kochia (Bassia scoparia) [19]; [26]): 10
Plant response rating, Kochia (kochia (Bassia scoparia) [19]; 125 g ai/ha, 0 to 100 scale): 60
Plant response rating, Oat, Wild [20, 27]: 0
Plant response rating, Oat, Wild [20, 28]: 0
Plant response rating, Galium [21, 26]: 30
Plant response rating, Galium ([21]; 125 g ai/ha, 0 to 100 scale): 100
Plant response rating, Barnyardgrass (0 to 100 scale, 0 is no effect, 100 is complete control) [22]: 95
Plant response rating, Soybean (soybean (Glycine max) [23]; [27]): 0
Plant response rating, Soybean (soybean (Glycine max) [23]; [28]): 0
Plant response rating, Wheat [24, 26]: 0
Plant response rating, Wheat ([24]; 125 g ai/ha, 0 to 100 scale): 40
Plant response rating, Corn (corn (Zea mays) [25]; [27]): 0
Plant response rating, Corn (corn (Zea mays) [25]; [28]): 0

— US20230278972A1, “SUBSTITUTED HALOALKYL SULFONANILIDE HERBICIDES” (FMC Corporation, priority 2020, published 2023)
